Assay results from PubChem BioAssay (NCI).
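Test compounds were applied to cells in 96-well plates for 48 hours at 5 doses. At the TGI there is no net growth.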

What follows are compounds tested on OVCAR-5 ovarian (assay: NCI-60 cell line screen, 48 h).
For `O=C(N/N=C\C=C\c1ccc([N+](=O)[O-])o1)C(=O)N/N=C\C=C\c1ccc([N+](=O)[O-])o1`, the TGI was over 100 µM.
`CC1(C)OC(=O)N(c2ccccc2)C12C=Cc1cc([N+](=O)[O-])ccc1O2` (stereo not drawn) gave a TGI of over 100 µM.
For `CSc1nnc(SC)nn1`, the TGI was 33.6 µM.
Compound `O=C1CC(c2cccc([N+](=O)[O-])c2)C2(C(=O)NC(=O)NC2=O)C(c2cccc([N+](=O)[O-])c2)C1` (stereo not drawn) has a TGI of over 100 µM.
`CCOC(=O)Cc1nc2cc(F)c(F)cc2[nH]c1=O` showed a TGI of over 100 µM.
`CC1(C)/C(=C/N=O)N(O)C(C)(C)N1O` showed a TGI of over 100 µM.
`COCc1nc2c(OC)c(-c3nc4nc(N5CCN(C)CC5)ccc4[nH]3)cc(OC)c2n1C` gave a TGI of over 100 µM.
With `CCN1CCN(c2nc3ccccc3c3c2CCOc2ccccc2-3)CC1` the TGI was over 65.2 µM.
`N#Cc1c(-c2ccccc2)[nH]c2ccc(Cl)cc2c1=O` was tested, and the TGI was over 100 µM.
For `O=C(NCP(=O)(c1ccccc1)c1ccccc1)OCc1ccccc1`, the TGI was over 100 µM.
Compound `O=c1cc(N2CCCC2)[nH]c(=O)n1-c1cccc(Cl)c1` has a TGI of over 100 µM.
Compound `CCOC(C)O[C@H]1C(=O)OCC1(C)C` (stereo partly drawn) has a TGI of over 100 µM.
For `N#Cc1[nH]c(=O)n(-c2ccccc2)c1N`, the TGI was over 10 µM.
Compound `O=C(NC(Cc1ccccc1)(Cc1ccc(O)cn1)C(=O)O)c1ccccc1` (stereo not drawn) has a TGI of over 100 µM.
Work on `COC(=O)c1cc2c(cc1CC(Cc1ccc3c(c1)CCCC3)C(=O)OC)CCCC2` (stereo not drawn) yielded a TGI of over 100 µM.
`O=c1c2ccccc2nc(Cc2nc(-c3ccc(Cl)cc3)cs2)n1-c1ccc(Cl)cc1` was tested, and the TGI was over 100 µM.
With `NNC(=S)N/N=C(/C(=O)Nc1ccc(Cl)c(Cl)c1)C(C1OC(=O)c2ccccc21)[N+](=O)[O-]` (stereo not drawn) the TGI was over 100 µM.

What follows are compounds tested on MDA-MB-231 breast (assay: NCI-60 cell line screen, 48 h).
With `C(/C=C/Nc1ccc(Oc2ccccc2)cc1)=Nc1ccc(Oc2ccccc2)cc1` the TGI was 31.1 µM.
`Cc1ccc([N+](=O)[O-])c2c(NCCC[N+](C)(C)[O-])c3ccccc3nc12` was tested, and the TGI was 6.28 µM.
Compound `O=C(N/N=C\C=C\c1ccc([N+](=O)[O-])o1)C(=O)N/N=C\C=C\c1ccc([N+](=O)[O-])o1` has a TGI of over 100 µM.
`CC1(C)OC(=O)N(c2ccccc2)C12C=Cc1cc([N+](=O)[O-])ccc1O2` (stereo not drawn) showed a TGI of 80.4 µM.
In the case of `CSc1nnc(SC)nn1`, the TGI is reported as 39.7 µM.
With `O=C1CC(c2cccc([N+](=O)[O-])c2)C2(C(=O)NC(=O)NC2=O)C(c2cccc([N+](=O)[O-])c2)C1` (stereo not drawn) the TGI was over 100 µM.
`CCOC(=O)Cc1nc2cc(F)c(F)cc2[nH]c1=O` showed a TGI of over 100 µM.
In the case of `CC1(C)/C(=C/N=O)N(O)C(C)(C)N1O`, the TGI is reported as over 100 µM.
With `COCc1nc2c(OC)c(-c3nc4nc(N5CCN(C)CC5)ccc4[nH]3)cc(OC)c2n1C` the TGI was 46.4 µM.
`CCN1CCN(c2nc3ccccc3c3c2CCOc2ccccc2-3)CC1` gave a TGI of over 61.2 µM.
`N#Cc1c(-c2ccccc2)[nH]c2ccc(Cl)cc2c1=O` gave a TGI of 89.7 µM.
Work on `O=C(NCP(=O)(c1ccccc1)c1ccccc1)OCc1ccccc1` yielded a TGI of over 100 µM.
`O=c1cc(N2CCCC2)[nH]c(=O)n1-c1cccc(Cl)c1` gave a TGI of over 100 µM.
`CCOC(C)O[C@H]1C(=O)OCC1(C)C` (stereo partly drawn) showed a TGI of over 100 µM.
`N#Cc1[nH]c(=O)n(-c2ccccc2)c1N` showed a TGI of over 10 µM.
`O=C(NC(Cc1ccccc1)(Cc1ccc(O)cn1)C(=O)O)c1ccccc1` (stereo not drawn) showed a TGI of over 100 µM.
Compound `COC(=O)c1cc2c(cc1CC(Cc1ccc3c(c1)CCCC3)C(=O)OC)CCCC2` (stereo not drawn) has a TGI of over 100 µM.
With `O=c1c2ccccc2nc(Cc2nc(-c3ccc(Cl)cc3)cs2)n1-c1ccc(Cl)cc1` the TGI was over 100 µM.
Work on `NNC(=S)N/N=C(/C(=O)Nc1ccc(Cl)c(Cl)c1)C(C1OC(=O)c2ccccc21)[N+](=O)[O-]` (stereo not drawn) yielded a TGI of over 100 µM.

The compounds below were run on OVCAR-4 ovarian (assay: NCI-60 cell line screen, 48 h).
With `C(/C=C/Nc1ccc(Oc2ccccc2)cc1)=Nc1ccc(Oc2ccccc2)cc1` the TGI was 32.8 µM.
In the case of `Cc1ccc([N+](=O)[O-])c2c(NCCC[N+](C)(C)[O-])c3ccccc3nc12`, the TGI is reported as 21.2 µM.
Work on `O=C(N/N=C\C=C\c1ccc([N+](=O)[O-])o1)C(=O)N/N=C\C=C\c1ccc([N+](=O)[O-])o1` yielded a TGI of over 100 µM.
For `CC1(C)OC(=O)N(c2ccccc2)C12C=Cc1cc([N+](=O)[O-])ccc1O2` (stereo not drawn), the TGI was over 100 µM.
In the case of `CSc1nnc(SC)nn1`, the TGI is reported as 32.5 µM.
`O=C1CC(c2cccc([N+](=O)[O-])c2)C2(C(=O)NC(=O)NC2=O)C(c2cccc([N+](=O)[O-])c2)C1` (stereo not drawn) showed a TGI of over 100 µM.
Compound `CCOC(=O)Cc1nc2cc(F)c(F)cc2[nH]c1=O` has a TGI of over 100 µM.
Work on `CC1(C)/C(=C/N=O)N(O)C(C)(C)N1O` yielded a TGI of over 100 µM.
`COCc1nc2c(OC)c(-c3nc4nc(N5CCN(C)CC5)ccc4[nH]3)cc(OC)c2n1C` showed a TGI of over 100 µM.
In the case of `CCN1CCN(c2nc3ccccc3c3c2CCOc2ccccc2-3)CC1`, the TGI is reported as over 100 µM.
With `N#Cc1c(-c2ccccc2)[nH]c2ccc(Cl)cc2c1=O` the TGI was over 100 µM.
For `O=C(NCP(=O)(c1ccccc1)c1ccccc1)OCc1ccccc1`, the TGI was over 100 µM.
`O=c1cc(N2CCCC2)[nH]c(=O)n1-c1cccc(Cl)c1` gave a TGI of over 100 µM.
Compound `CCOC(C)O[C@H]1C(=O)OCC1(C)C` (stereo partly drawn) has a TGI of over 100 µM.
With `N#Cc1[nH]c(=O)n(-c2ccccc2)c1N` the TGI was over 10 µM.
`O=C(NC(Cc1ccccc1)(Cc1ccc(O)cn1)C(=O)O)c1ccccc1` (stereo not drawn) was tested, and the TGI was over 100 µM.
`COC(=O)c1cc2c(cc1CC(Cc1ccc3c(c1)CCCC3)C(=O)OC)CCCC2` (stereo not drawn) was tested, and the TGI was 71.1 µM.
`O=c1c2ccccc2nc(Cc2nc(-c3ccc(Cl)cc3)cs2)n1-c1ccc(Cl)cc1` was tested, and the TGI was over 100 µM.
With `NNC(=S)N/N=C(/C(=O)Nc1ccc(Cl)c(Cl)c1)C(C1OC(=O)c2ccccc21)[N+](=O)[O-]` (stereo not drawn) the TGI was over 100 µM.

Each compound was assayed on NCI/ADR-RES ovarian (assay: NCI-60 cell line screen, 48 h).
`C(/C=C/Nc1ccc(Oc2ccccc2)cc1)=Nc1ccc(Oc2ccccc2)cc1` showed a TGI of 33.5 µM.
Compound `Cc1ccc([N+](=O)[O-])c2c(NCCC[N+](C)(C)[O-])c3ccccc3nc12` has a TGI of over 100 µM.
With `O=C(N/N=C\C=C\c1ccc([N+](=O)[O-])o1)C(=O)N/N=C\C=C\c1ccc([N+](=O)[O-])o1` the TGI was 70.1 µM.
`CC1(C)OC(=O)N(c2ccccc2)C12C=Cc1cc([N+](=O)[O-])ccc1O2` (stereo not drawn) was tested, and the TGI was over 100 µM.
`CSc1nnc(SC)nn1` showed a TGI of 31.9 µM.
Work on `O=C1CC(c2cccc([N+](=O)[O-])c2)C2(C(=O)NC(=O)NC2=O)C(c2cccc([N+](=O)[O-])c2)C1` (stereo not drawn) yielded a TGI of over 100 µM.
`CCOC(=O)Cc1nc2cc(F)c(F)cc2[nH]c1=O` was tested, and the TGI was over 100 µM.
With `CC1(C)/C(=C/N=O)N(O)C(C)(C)N1O` the TGI was over 100 µM.
`COCc1nc2c(OC)c(-c3nc4nc(N5CCN(C)CC5)ccc4[nH]3)cc(OC)c2n1C` was tested, and the TGI was over 100 µM.
`CCN1CCN(c2nc3ccccc3c3c2CCOc2ccccc2-3)CC1` was tested, and the TGI was over 78.1 µM.
`N#Cc1c(-c2ccccc2)[nH]c2ccc(Cl)cc2c1=O` gave a TGI of over 100 µM.
Work on `O=C(NCP(=O)(c1ccccc1)c1ccccc1)OCc1ccccc1` yielded a TGI of over 100 µM.
Work on `O=c1cc(N2CCCC2)[nH]c(=O)n1-c1cccc(Cl)c1` yielded a TGI of over 100 µM.
Work on `CCOC(C)O[C@H]1C(=O)OCC1(C)C` (stereo partly drawn) yielded a TGI of over 100 µM.
For `N#Cc1[nH]c(=O)n(-c2ccccc2)c1N`, the TGI was over 10 µM.
`O=C(NC(Cc1ccccc1)(Cc1ccc(O)cn1)C(=O)O)c1ccccc1` (stereo not drawn) was tested, and the TGI was over 100 µM.
Compound `COC(=O)c1cc2c(cc1CC(Cc1ccc3c(c1)CCCC3)C(=O)OC)CCCC2` (stereo not drawn) has a TGI of over 100 µM.
Work on `O=c1c2ccccc2nc(Cc2nc(-c3ccc(Cl)cc3)cs2)n1-c1ccc(Cl)cc1` yielded a TGI of over 100 µM.
Compound `NNC(=S)N/N=C(/C(=O)Nc1ccc(Cl)c(Cl)c1)C(C1OC(=O)c2ccccc21)[N+](=O)[O-]` (stereo not drawn) has a TGI of over 100 µM.

These compounds were tested on ACHN renal (assay: NCI-60 cell line screen, 48 h).
With `C(/C=C/Nc1ccc(Oc2ccccc2)cc1)=Nc1ccc(Oc2ccccc2)cc1` the TGI was 50.9 µM.
Compound `Cc1ccc([N+](=O)[O-])c2c(NCCC[N+](C)(C)[O-])c3ccccc3nc12` has a TGI of 47.7 µM.
Work on `O=C(N/N=C\C=C\c1ccc([N+](=O)[O-])o1)C(=O)N/N=C\C=C\c1ccc([N+](=O)[O-])o1` yielded a TGI of over 100 µM.
In the case of `CC1(C)OC(=O)N(c2ccccc2)C12C=Cc1cc([N+](=O)[O-])ccc1O2` (stereo not drawn), the TGI is reported as over 100 µM.
Work on `CSc1nnc(SC)nn1` yielded a TGI of 30.5 µM.
`O=C1CC(c2cccc([N+](=O)[O-])c2)C2(C(=O)NC(=O)NC2=O)C(c2cccc([N+](=O)[O-])c2)C1` (stereo not drawn) was tested, and the TGI was over 100 µM.
For `CCOC(=O)Cc1nc2cc(F)c(F)cc2[nH]c1=O`, the TGI was over 100 µM.
In the case of `CC1(C)/C(=C/N=O)N(O)C(C)(C)N1O`, the TGI is reported as over 100 µM.
`COCc1nc2c(OC)c(-c3nc4nc(N5CCN(C)CC5)ccc4[nH]3)cc(OC)c2n1C` gave a TGI of 57.4 µM.
For `CCN1CCN(c2nc3ccccc3c3c2CCOc2ccccc2-3)CC1`, the TGI was over 100 µM.
For `N#Cc1c(-c2ccccc2)[nH]c2ccc(Cl)cc2c1=O`, the TGI was over 100 µM.
With `O=C(NCP(=O)(c1ccccc1)c1ccccc1)OCc1ccccc1` the TGI was over 100 µM.
`O=c1cc(N2CCCC2)[nH]c(=O)n1-c1cccc(Cl)c1` was tested, and the TGI was over 100 µM.
`CCOC(C)O[C@H]1C(=O)OCC1(C)C` (stereo partly drawn) was tested, and the TGI was over 100 µM.
`N#Cc1[nH]c(=O)n(-c2ccccc2)c1N` showed a TGI of over 10 µM.
With `O=C(NC(Cc1ccccc1)(Cc1ccc(O)cn1)C(=O)O)c1ccccc1` (stereo not drawn) the TGI was over 100 µM.
For `COC(=O)c1cc2c(cc1CC(Cc1ccc3c(c1)CCCC3)C(=O)OC)CCCC2` (stereo not drawn), the TGI was over 100 µM.
`O=c1c2ccccc2nc(Cc2nc(-c3ccc(Cl)cc3)cs2)n1-c1ccc(Cl)cc1` showed a TGI of over 100 µM.
`NNC(=S)N/N=C(/C(=O)Nc1ccc(Cl)c(Cl)c1)C(C1OC(=O)c2ccccc21)[N+](=O)[O-]` (stereo not drawn) gave a TGI of over 100 µM.
